Test results taken from patent US9447157B2, “Nitration shielding peptides and methods of use thereof” (Augusta University Research Institute, Inc., priority 2013, dated 2016).

How the values were obtained:
[1] = system: Pulmonary artery smooth muscle cells (PASMC); test: PASMC cellular metabolism (alamarBlue assay); assay type: cell-based, lamb; conditions: SIN-1 500 μM 48 h
Protocol: This was determined via the alamarBlue assay (AbD Serotec, Oxford, UK). The assay is based on the reducing ability of metabolically active cells to convert the active reagent, resazurin, into a fluorescent and colorimetric indicator, resorufin. When added to cell cultures, the oxidized, resazurin enters the cytosol and is converted to the reduced, resorufin in the mitochondria by accepting electrons from NADH, NADPH, FADH2, FMNH2, as well as from the cytochromes. The non-toxic and cell permeable nature of alamarBlue permits the long-term exposure of cells. PASMC were grown on a 10 cm dish to 75% confluence, transfected with WT-PKG-1α or Y247F-PKG-1α cDNA, and incubated at 37° C. for 20 h. The cells were trypsinized and seeded onto a 24-well plate at a density of 20,000 cells per well and grown for an additional 4 h in serum and phenol free DMEM growth medium containing 1% FBS and antibiotics. The cells were then treated with or without SIN-1 (500 μM, 48 h) in the presence of 10% well volume of alamarBlue dye. The color change of the dye was determined at an excitation wavelength of 560 nm and an emission wavelength of 590 nm in a Fluoroskan Ascent plate reader. […] Cellular metabolism was expressed as follows: […]

[2] = system: Pulmonary artery smooth muscle cells (PASMC); test: PASMC phenotype markers (Western blot, immunocytochemistry); assay type: cell-based, lamb; conditions: SIN-1 500 μM 48 h
Protocol: Cells were prepared as previously described (Sud, N., et al., American Journal of Physiology 293, L1444-1453 (2007); Sharma, S., et al., American Journal of Physiology 294, L46-56 (2008)). Briefly, the cellular protein extracts were prepared by homogenizing the cells in lysis buffer (50 mM Tris-HCl, pH 7.6, 0.5% Triton X-100, and 20% glycerol) containing Halt protease inhibitor cocktail (Pierce, Rockford, Ill.). The extracts were then clarified by centrifugation (20,000 g for 20 min at 4° C.). The supernatant fractions were assayed for protein concentration using the Bio-Rad DC Protein Assay (Bio-Rad Laboratories, Hercules, Calif.) and used for Western blot analysis. Similarly, peripheral lung tissue from the control lambs and the lambs with pulmonary hypertension secondary to increased pulmonary blood flow (shunt) was prepared as described earlier (Aggarwal, S., et al., Journal of Cellular Physiology (2011)). Cell extracts ([…]) were resolved using 4-20% Tris-SDS-Hepes PAGE, electrophoretically transferred to Immuno-Blot™ PVDF membrane (Bio-Rad Laboratories, Hercules, Calif.), and then blocked with 5% nonfat dry milk in Tris buffered saline. The membranes were then probed with antibodies against PKG-1α (1:500 dilution), anti-nitrotyrosine 247-PKG-1α (1:500), Calponin-1 (1:500 dilution), Vimentin (1:500 dilution), or MYH (1:500 dilution). Reactive bands were visualized using chemi-luminescence (Pierce Laboratories, Rockford, Ill.) on a Kodak 440CF image station. The band intensity was quantified using Kodak 1D image processing software. The protein expression was normalized by re-probing with anti β-actin (1:2000).
Semi-confluent PASMC grown on a coverslip in a 6-well plate were transfected with a mammalian expression plasmid containing either a wild-type (WT)- or Y247F-PKG-1α cDNA. After 20 h, the cells were serum starved (1% FBS) for 4 h then exposed or not to SIN-1 (500 μM) for 48 h. The cells were washed with PBS, methanol fixed (5 min), and permeabilized in 0.1% PBS-Tween (20 min). […] The cells were rinsed 3× with PBS, and the coverslips were mounted on the slides with ProLong Gold Antifade and analyzed with the use of a Nikon Eclipse TE 300 inverted fluorescent microscope with a 60× oil objective and a Hamamatsu digital camera.
To assess the effect of nitration on pulmonary arterial smooth muscle cell (PASMC) phenotype, PASMC were transiently transfected with expression plasmids containing WT-PKG-1α, Y247F-PKG-1α, or PDEST40 (as a control) for 20 h. Cells were then exposed or not to SIN-1 (500 μM, 48 h) and the effect on synthetic and contractile markers determined. The levels of myosin heavy chain (MYH, FIG. 18A), Calponin-1 (FIG. 18B), and Vimentin (FIG. 18C) were determined. […]

## 3-morpholinosydnonimine N-ethylcarbamide [SIN-1]
[1]
  Metabolism, WT-PKG-1α transfected PASMC: stimulated
[2]; WT-PKG-1α expressing PASMC
  PCNA staining: increased
  SM-22α expression: attenuated
[2]; WT-PKG-1α transfected PASMC
  Expression of contractile markers MYH and Calponin-1: decreased
  Expression of proliferative marker Vimentin: increased
